Values after ≈ are worked out from the molar mass of the structure shown.
Tests used:
[1] = test system: Staphylococcus aureus, MSSA and MRSA strains; experiment: Antibacterial activity against S. aureus strains (text summaries); assay type: cell-based; details: for MBC / MIC: Staphylococcus aureus; for MBC: lowest MBC values; for Eagle effect (paradoxical growth) during MBC determination: S. aureus ATCC 6538P and five MRSA clinical strains; for MIC: both MSSA and MRSA strains, read-out: MIC values against Staphylococcus aureus
Method: (§1) Direct antimicrobial activity was determined against the following standard strains: (1) Gram-positive cocci: methicillin-sensitive Staphylococcus aureus ATCC 6538P (MSSA), methicillin-resistant S. aureus subsp. aureus ATCC 43300 (MRSA), S. epidermidis ATCC 12228, Enterococcus faecium ATCC 6057, E. faecalis ATCC 29212, Bacillus subtilis ATCC 6633; (2) Gram-negative bacteria from Enterobacteriales order: Klebsiella pneumoniae ATCC 13883, Escherichia coli ATCC 25922, Enterobacter cloacae DSM 6234, Proteus mirabilis ATCC 12453, Serratia marcescens ATCC 13880; (3) Gram-negative non-fermentative rods: Acinetobacter baumannii ATCC 19606, Pseudomonas aeruginosa ATCC 27853, Stenotrophomonas maltophilia ATCC 12714, S. maltophilia ATCC 13637, Burkholderia cepacia ATCC 25416, Bordetella bronchiseptica ATCC 4617; (4) yeasts: Candida albicans ATCC 90028, C. krusei ATCC 6258, C. parapsilosis ATCC 22019, C. tropicalis (Castellani) Berkhout ATCC 750, C. tropicalis IBA 171, C. guilliermondii IBA 155, and Saccharomyces cerevisiae ATCC 9763. Moreover, 5 clinical strains of methicillin-resistant S. aureus were also included: NMI 664 K, NMI 1576 K, NMI 1712 K, NMI 1991 K, and NMI 2541 K. All strains were stored at −80 °C. Prior to testing, each bacterial strain was subcultured twice on tryptic soy agar TSA (bioMerieux) medium and yeast strains on Sabouraud dextrose agar (bioMerieux) for 24–48 h at 30 °C to ensure viability. The antimicrobial activity was evaluated as previously described[26] by the disc-diffusion method and the MIC determination assays according to the EUCAST (ref. [71] and [72]) and CLSI (ref. [53] and [73]) recommendations. Assessment of bactericidal (MBC) and fungicidal (MFC) activities was performed according to the CLSI recommendations.[54,74] The following reference agents were used: fluconazole (in the case of fungi), linezolid (for Gram-positive bacteria), and nitrofurantoin (for Gram-negative rods). The new benzosiloxaboroles were dissolved in DMSO (Sigma).

[2] = test system: B. bronchiseptica ATCC 4617; experiment: Antibacterial activity: MIC/MBC, disc-diffusion; assay type: cell-based, Bordetella bronchiseptica; details: B. bronchiseptica ATCC 4617; for MIC: read-out: MIC
Method: as §1, with “The following reference agents were used: fluconazole (in the case of fungi), linezolid (for Gram-positive bacteria), and nitrofurantoin (for Gram-negative rods).” left out
Considering that the MDR efflux pumps often contribute to Gram-negative rod resistance, the MIC values of studied agents, with or without the pump inhibitor, PAβN (20 μg mL^−1) (Sigma), were determined.[75] The MIC was determined using Mueller–Hinton II broth medium (MHB) (Becton Dickinson) by the broth microdilution method, according to the CLSI guideliness.[53] To minimize the influence of PAβN on the destabilization of bacterial cell covers, the tests were conducted in the presence of 1 mM MgSO4 (Sigma).[76] At least a 4-fold reduction in the MIC value after the addition of PAβN was considered significant.[56,77]

[3] = test system: C. tropicalis IBA 171; experiment: Antifungal activity: MIC/MFC, disc-diffusion; assay type: cell-based; details: for MIC: Candida tropicalis, IBA171, read-out: MIC; for diameter of inhibition zone: C. tropicalis IBA 171, (-) = zone not observed, paper discs 9 mm
How it was run: (§2)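 Following two 24–48 h subcultures at 30 °C on the appropriate agar, the clinical MRSA isolates and yeast strains were tested by broth MIC and disc diffusion (EUCAST, CLSI). Killing endpoints (MBC/MFC) were determined per CLSI.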

[4] = test system: C. parapsilosis ATCC 22019; experiment: Antifungal activity: MIC/MFC, disc-diffusion; assay type: cell-based; details: for MIC: Lodderomyces parapsilosis, ATCC22019, read-out: MIC; for diameter of inhibition zone: C. parapsilosis ATCC 22019, (-) = zone not observed, paper discs 9 mm
How it was run: as §2

[5] = test system: Human normal lung fibroblasts MRC-5; experiment: MTT-based viability (cytotoxicity) assay; details: for IC50: Homo sapiens, MRC5, 48 h
How it was run: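 MRC-5 pd30 human lung fibroblasts in supplemented MEME at 37 °C, 5% CO2; viability by MTT, absorbance 570 nm, triplicate, as percent of control cells. Selectivity index taken as IC50/MIC against S. aureus MRSA strains.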

[6] = Bordetella bronchiseptica, ATCC4617

Row | SMILES | MBC [1] [µg/mL] | MIC [2, 6] [µg/mL] | MIC [3] [µg/mL] | MIC [4] [µg/mL] | Eagle effect (paradoxical growth) during MBC determination [1] | viability of MRC-5 ([5]; 6.25 µg·mL−1, 48 h) | viability of MRC-5 ([5]; 12.5 µg·mL−1, 48 h) | viability of MRC-5 ([5]; 25 µg·mL−1, 48 h) | viability of MRC-5 ([5]; 50 µg·mL−1, 48 h) | viability of MRC-5 ([5]; 100 µg·mL−1, 48 h) | viability of MRC-5 ([5]; 200 µg·mL−1, 48 h) | viability of MRC-5 ([5]; 400 µg·mL−1, 48 h) | IC50 [5] [µg/mL] | MIC [1] [µg/mL] | diameter of inhibition zone ([2]; (-) = zone not observed, paper discs 9 mm) [mm] | MBC [2, 6] [µg/mL] | diameter of inhibition zone [3] [mm] | diameter of inhibition zone [4] [mm]
1 | C[Si]1(C)OB(O)c2cc(F)c(S)c(F)c21 [Compound 1e, 5,7-Difluoro-6-mercapto-1,1-dimethylbenzo[c][1,2,5]oxasilaborol-3(1H)-ol] | 25 to 50 (≈ 102 to 203 µM) | > 400 | 200 (≈ 813 µM) | 400 (≈ 1630 µM) |  |  |  |  |  |  |  |  |  |  |  |  |  | 
2 | C[Si]1(C)OB(O)c2ccc(S)c(F)c21 [Compound 2e, 7-Fluoro-6-mercapto-1,1-dimethylbenzo[c][1,2,5]oxasilaborol-3(1H)-ol] | 25 to 50 (≈ 110 to 219 µM) | > 100 | > 100 | > 100 |  |  |  |  |  |  |  |  |  |  |  |  |  | 
3 | COC(=O)CCSc1ccc2c(c1F)[Si](C)(C)OB2O [Compound 4, Methyl 3-((7-fluoro-3-hydroxy-1,1-dimethyl-1,3-dihydrobenzo[c][1,2,5]oxasilaborol-6-yl)thio)propanoate] |  | > 400 | > 400 | 400 (≈ 1270 µM) | Eagle effect |  |  |  |  |  |  |  |  |  |  |  |  | 
4 | C[Si]1(C)OB(O)c2cc(F)c(SCCC#N)c(F)c21 [Compound 6, 3-((5,7-Difluoro-3-hydroxy-1,1-dimethyl-1,3-dihydrobenzo[c][1,2,5]oxasilaborol-6-yl)thio)propanenitrile] |  | > 400 | > 400 | > 400 | Eagle effect | 104.0±5.7 % of control ± SD | 112.1±1.8 % of control ± SD | 104.7±6.7 % of control ± SD | 108.3±3.0 % of control ± SD | 90.4±0.5 % of control ± SD | 43.6±5.1 % of control ± SD | 29.5±5.8 % of control ± SD | 140 (≈ 468 µM) | 1.56 to 12.5 (≈ 5.21 to 41.8 µM) |  |  |  | 
5 | C[Si]1(C)OB(O)c2cc(F)c(SC3CC(=O)NC3=O)c(F)c21 (stereo not drawn) [Compound 12, 3-((5,7-Difluoro-3-hydroxy-1,1-dimethyl-1,3-dihydrobenzo[c][1,2,5]oxasilaborol-6-yl)thio)pyrrolidine-2,5-dione] |  | 12.5 (≈ 36.4 µM) | > 400 | > 400 |  | 103.0±1.5 % of control ± SD | 104.4±1.9 % of control ± SD | 94.9±2.3 % of control ± SD | 86.1±6.9 % of control ± SD | 76.4±3.5 % of control ± SD | 46.9±2.7 % of control ± SD | 0.4±0.2 % of control ± SD | 167 (≈ 488 µM) | 1.56 to 12.5 (≈ 4.55 to 36.4 µM) | 25 | 50 (≈ 146 µM) |  | 
6 | C[Si]1(C)OB(O)c2cc(F)c(SC3CC(=O)N(c4ccc(Br)c(C(F)(F)F)c4)C3=O)c(F)c21 (stereo not drawn) [Compound 16, 1-(4-Bromo-3-(trifluoromethyl)phenyl)-3-((5,7-difluoro-3-hydroxy-1,1-dimethyl-1,3-dihydrobenzo[c][1,2,5]oxasilaborol-6-yl)thio)pyrrolidine-2,5-dione] |  | 200 (≈ 353 µM) | 50 (≈ 88.3 µM) | 50 (≈ 88.3 µM) |  | 97.0±0.2 % of control ± SD | 84.8±2.7 % of control ± SD | 78.5±1.6 % of control ± SD | 62.7±2.5 % of control ± SD | 46.0±1.4 % of control ± SD | 0.4±0.2 % of control ± SD | 0.1±0.0 % of control ± SD | 76.2 (≈ 135 µM) |  |  |  | 19 | 24
7 | C[Si]1(C)OB(O)c2ccc(SC3CC(=O)N(c4ccc(Br)c(C(F)(F)F)c4)C3=O)c(F)c21 (stereo not drawn) [Compound 17, 1-(4-Bromo-3-(trifluoromethyl)phenyl)-3-((7-fluoro-3-hydroxy-1,1-dimethyl-1,3-dihydrobenzo[c][1,2,5]oxasilaborol-6-yl)thio)pyrrolidine-2,5-dione] |  | 200 (≈ 365 µM) | 200 (≈ 365 µM) | 50 (≈ 91.2 µM) |  | 99.9±4.6 % of control ± SD | 96.1±2.3 % of control ± SD | 87.6±0.2 % of control ± SD | 89.2±8.5 % of control ± SD | 71.2±1.3 % of control ± SD | 29.5±0.3 % of control ± SD | 0.0±0.0 % of control ± SD | 140 (≈ 254 µM) |  |  |  | 16 | 22
8 | C[Si]1(C)OB(O)c2cc(F)c(S(N)(=O)=O)c(F)c21 [Compound 27, 5,7-Difluoro-3-hydroxy-1,1-dimethyl-1,3-dihydrobenzo[c][1,2,5]oxasilaborole-6-sulfonamide] |  | > 400 | > 400 | > 400 |  | 74.1±3.1 % of control ± SD | 74.1±1.4 % of control ± SD | 79.3±9.5 % of control ± SD | 79.7±7.5 % of control ± SD | 74.3±7.9 % of control ± SD | 68.5±3.4 % of control ± SD | 66.2±2.4 % of control ± SD | > 400 |  |  |  |  | 
9 | C[Si]1(C)OB(O)c2cc(F)c(S(=O)(=O)Nc3ccc(F)cc3)c(F)c21 [Compound 28, 5,7-Difluoro-N-(4-fluorophenyl)-3-hydroxy-1,1-dimethyl-1,3-dihydrobenzo[c][1,2,5]oxasilaborole-6-sulfonamide] |  | > 400 | > 400 | > 400 |  | 93.3±1.9 % of control ± SD | 82.6±1.2 % of control ± SD | 75.1±5.4 % of control ± SD | 65.5±1.8 % of control ± SD | 47.7±3.7 % of control ± SD | 32.5±0.0 % of control ± SD | 15.6±0.1 % of control ± SD | 74.9 (≈ 193 µM) |  |  |  |  | 
